Data: PubChem BioAssay (NCI)
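All cell lines were grown in 96-well plates and treated with compound for 48 hours. TGI denotes the concentration required for complete inhibition of growth.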

Columns and labels:
Experiment in all cases: growth of human tumour cells (NCI), 48 h
[1] = test system: BT-549 breast
[2] = test system: SK-OV-3 ovarian
[3] = test system: OVCAR-8 ovarian
[4] = test system: MDA-MB-231 breast
[5] = test system: UACC-257 melanoma
[6] = test system: SF-295 CNS
[7] = test system: IGROV1 ovarian
[8] = test system: T-47D breast
[9] = test system: HCT-15 colon
[10] = test system: MDA-N
[11] = test system: NCI-H226 lung
[12] = test system: SNB-75 CNS
[13] = test system: SK-MEL-28 melanoma
[14] = test system: EKVX NSCLC
[15] = test system: SF-268 CNS
[16] = test system: SK-MEL-5 melanoma
[17] = test system: NCI/ADR-RES ovarian
[18] = test system: MCF7 breast
[19] = test system: A549 NSCLC
[20] = test system: SNB-19 CNS
[21] = test system: SK-MEL-2 melanoma
[22] = test system: M14 melanoma
[23] = test system: SF-539 CNS
[24] = test system: NCI-H522 lung
[25] = test system: OVCAR-4 ovarian
[26] = test system: LOX IMVI melanoma
[27] = test system: COLO 205 colon
[28] = test system: MOLT-4 leukemia
[29] = test system: U251 CNS
[30] = test system: KM12 colon
[31] = test system: TK-10 renal
[32] = test system: HT29 colon
[33] = test system: HOP-62 NSCLC
[34] = test system: RXF 393 renal
[35] = test system: UACC-62 melanoma
[36] = test system: NCI-H460 lung
[37] = test system: MDA-MB-435
[38] = test system: CAKI-1 renal
[39] = test system: RPMI-8226 leukemia
[40] = test system: SW-620 colon
[41] = test system: K-562 leukemia
[42] = test system: PC-3 prostate
[43] = test system: 786-0 renal
[44] = test system: HCT-116 colon
[45] = test system: DU-145 prostate
[46] = test system: HL-60(TB) leukemia
[47] = test system: OVCAR-5 ovarian
[48] = test system: HS 578T breast
[49] = test system: SN12C renal
[50] = test system: CCRF-CEM leukemia
[51] = test system: A498 renal
[52] = test system: OVCAR-3 ovarian
[53] = test system: ACHN renal
[54] = test system: NCI-H23 lung
[55] = test system: HCC-2998 colon
[56] = test system: HOP-92 NSCLC
[57] = test system: MALME-3M melanoma
[58] = test system: UO-31 renal
[59] = test system: SR leukemia

What does the source list for `CCOP(=O)(/C=C/n1cnc2c(=O)n(C(C)=O)c(N)nc21)OCC`?
TGI [1]: > 100 µM; TGI [2]: > 100 µM; TGI [3]: > 100 µM; TGI [4]: > 100 µM; TGI [5]: > 100 µM; TGI [6]: > 100 µM; TGI [7]: > 100 µM; TGI [8]: > 100 µM; TGI [9]: > 100 µM; TGI [10]: > 100 µM; TGI [11]: > 100 µM; TGI [12]: > 100 µM; TGI [13]: > 100 µM; TGI [14]: > 100 µM; TGI [15]: > 100 µM; TGI [16]: > 100 µM; TGI [17]: > 100 µM; TGI [18]: > 100 µM; TGI [19]: > 100 µM; TGI [20]: > 100 µM; TGI [21]: > 100 µM; TGI [22]: > 100 µM; TGI [23]: > 100 µM; TGI [24]: > 100 µM; TGI [25]: > 100 µM; TGI [26]: > 100 µM; TGI [27]: > 100 µM; TGI [28]: > 100 µM; TGI [29]: > 100 µM; TGI [30]: > 100 µM; TGI [31]: > 100 µM; TGI [32]: > 100 µM; TGI [33]: > 100 µM; TGI [34]: > 100 µM; TGI [35]: > 100 µM; TGI [36]: > 100 µM; TGI [37]: > 100 µM; TGI [38]: > 100 µM; TGI [39]: > 100 µM; TGI [40]: > 100 µM; TGI [41]: > 100 µM; TGI [42]: > 100 µM; TGI [43]: > 100 µM; TGI [44]: > 100 µM; TGI [45]: > 100 µM; TGI [46]: > 100 µM; TGI [47]: > 100 µM; TGI [48]: > 100 µM; TGI [49]: > 100 µM; TGI [50]: > 100 µM; TGI [51]: > 100 µM; TGI [52]: > 100 µM; TGI [53]: > 100 µM; TGI [54]: > 100 µM

Which results are given for `COC1(c2ccccc2)NC(=S)NN=C1c1ccccc1` (stereo not drawn)?
TGI [1]: 82.8 µM; TGI [2]: 78.4 µM; TGI [3]: 84 µM; TGI [4]: 70.9 µM; TGI [5]: > 100 µM; TGI [55]: 37.8 µM; TGI [6]: 99.3 µM; TGI [7]: > 100 µM; TGI [56]: > 100 µM; TGI [8]: > 100 µM; TGI [9]: 64.2 µM; TGI [10]: 45 µM; TGI [12]: 97.5 µM; TGI [57]: > 100 µM; TGI [13]: > 100 µM; TGI [14]: > 100 µM; TGI [15]: > 100 µM; TGI [16]: 80.7 µM; TGI [17]: 37.7 µM; TGI [18]: > 100 µM; TGI [19]: > 100 µM; TGI [20]: > 100 µM; TGI [21]: 75.8 µM; TGI [22]: > 100 µM; TGI [24]: 73.8 µM; TGI [26]: > 100 µM; TGI [27]: 49.8 µM; TGI [28]: > 100 µM; TGI [58]: > 100 µM; TGI [29]: 46.6 µM; TGI [30]: > 100 µM; TGI [31]: > 100 µM; TGI [32]: > 100 µM; TGI [33]: > 100 µM; TGI [34]: > 100 µM; TGI [35]: > 100 µM; TGI [36]: 71.6 µM; TGI [37]: 39.1 µM; TGI [38]: > 100 µM; TGI [39]: > 100 µM; TGI [40]: > 100 µM; TGI [41]: > 100 µM; TGI [42]: > 100 µM; TGI [43]: > 100 µM; TGI [44]: > 100 µM; TGI [45]: > 100 µM; TGI [46]: 54.5 µM; TGI [47]: > 100 µM; TGI [48]: > 100 µM; TGI [49]: 60.8 µM; TGI [59]: 85.8 µM; TGI [50]: > 100 µM; TGI [51]: > 100 µM; TGI [52]: 84.6 µM; TGI [53]: > 100 µM; TGI [54]: > 100 µM

`Cc1cc(OC(=O)Nc2ccc(Cl)cc2)ccc1C(=S)Nc1ccccc1` was tested. Which TGI [1] did it give?
The TGI was > 100 µM.

What about the TGI [2] of the same compound?
The TGI was > 100 µM.

What about the TGI [3] of the same compound?
Its TGI is > 100 µM.

What about the TGI [5] of the same compound?
The TGI was > 100 µM.

And the TGI [55]?
Its TGI is > 100 µM.

What about the TGI [6] of the same compound?
The TGI was > 100 µM.

And the TGI [7]?
Its TGI is > 100 µM.

What about the TGI [56] of the same compound?
Its TGI is > 100 µM.

And the TGI [8]?
Its TGI is > 100 µM.

What about the TGI [9] of the same compound?
The TGI was > 100 µM.

What about the TGI [10] of the same compound?
The TGI was > 100 µM.

What about the TGI [12] of the same compound?
The TGI was > 100 µM.

And the TGI [57]?
Its TGI is > 100 µM.

And the TGI [13]?
Its TGI is > 100 µM.

What about the TGI [14] of the same compound?
Its TGI is > 100 µM.

And the TGI [15]?
Its TGI is > 100 µM.

What about the TGI [16] of the same compound?
The TGI was > 100 µM.

What about the TGI [17] of the same compound?
The TGI was > 100 µM.

What about the TGI [18] of the same compound?
Its TGI is > 100 µM.

And the TGI [19]?
The TGI was > 100 µM.

What about the TGI [20] of the same compound?
Its TGI is > 100 µM.

What about the TGI [21] of the same compound?
Its TGI is > 100 µM.

What about the TGI [22] of the same compound?
The TGI was > 100 µM.

What about the TGI [23] of the same compound?
The TGI was > 100 µM.

And the TGI [24]?
Its TGI is > 100 µM.

And the TGI [25]?
Its TGI is > 100 µM.

What about the TGI [26] of the same compound?
The TGI was > 100 µM.

What about the TGI [27] of the same compound?
The TGI was > 100 µM.

And the TGI [28]?
Its TGI is > 100 µM.

What about the TGI [58] of the same compound?
Its TGI is > 100 µM.

And the TGI [29]?
The TGI was > 100 µM.

And the TGI [30]?
Its TGI is > 100 µM.

And the TGI [32]?
Its TGI is > 100 µM.

What about the TGI [33] of the same compound?
The TGI was > 100 µM.

And the TGI [35]?
The TGI was > 100 µM.

And the TGI [36]?
Its TGI is > 100 µM.

What about the TGI [37] of the same compound?
The TGI was > 100 µM.

And the TGI [38]?
Its TGI is > 100 µM.

And the TGI [39]?
Its TGI is > 100 µM.

What about the TGI [40] of the same compound?
The TGI was > 100 µM.

What about the TGI [41] of the same compound?
The TGI was > 100 µM.

And the TGI [42]?
Its TGI is > 100 µM.

What about the TGI [43] of the same compound?
The TGI was > 100 µM.

And the TGI [44]?
Its TGI is > 100 µM.

And the TGI [46]?
Its TGI is 53.7 µM.

What about the TGI [47] of the same compound?
The TGI was > 100 µM.

And the TGI [48]?
The TGI was > 100 µM.

What about the TGI [49] of the same compound?
The TGI was > 100 µM.

And the TGI [59]?
Its TGI is > 100 µM.

And the TGI [50]?
The TGI was 58 µM.

And the TGI [51]?
The TGI was > 100 µM.

And the TGI [52]?
Its TGI is > 100 µM.

What about the TGI [53] of the same compound?
Its TGI is > 100 µM.
